Among the data in the Kinase Knowledgebase extract (Sharma et al. 2016) are IC50 values, retold here.

The IC50 is the concentration needed to halve the response being measured. The low end stands for higher potency, the high end for lower potency.

The assay has as its target ROCK2 (human) (UniProt O75116). Briefly: Inhibition of ROCK2 Kinase Activity.

ROCK2 (human), sequence (O75116 whole entry, looked up): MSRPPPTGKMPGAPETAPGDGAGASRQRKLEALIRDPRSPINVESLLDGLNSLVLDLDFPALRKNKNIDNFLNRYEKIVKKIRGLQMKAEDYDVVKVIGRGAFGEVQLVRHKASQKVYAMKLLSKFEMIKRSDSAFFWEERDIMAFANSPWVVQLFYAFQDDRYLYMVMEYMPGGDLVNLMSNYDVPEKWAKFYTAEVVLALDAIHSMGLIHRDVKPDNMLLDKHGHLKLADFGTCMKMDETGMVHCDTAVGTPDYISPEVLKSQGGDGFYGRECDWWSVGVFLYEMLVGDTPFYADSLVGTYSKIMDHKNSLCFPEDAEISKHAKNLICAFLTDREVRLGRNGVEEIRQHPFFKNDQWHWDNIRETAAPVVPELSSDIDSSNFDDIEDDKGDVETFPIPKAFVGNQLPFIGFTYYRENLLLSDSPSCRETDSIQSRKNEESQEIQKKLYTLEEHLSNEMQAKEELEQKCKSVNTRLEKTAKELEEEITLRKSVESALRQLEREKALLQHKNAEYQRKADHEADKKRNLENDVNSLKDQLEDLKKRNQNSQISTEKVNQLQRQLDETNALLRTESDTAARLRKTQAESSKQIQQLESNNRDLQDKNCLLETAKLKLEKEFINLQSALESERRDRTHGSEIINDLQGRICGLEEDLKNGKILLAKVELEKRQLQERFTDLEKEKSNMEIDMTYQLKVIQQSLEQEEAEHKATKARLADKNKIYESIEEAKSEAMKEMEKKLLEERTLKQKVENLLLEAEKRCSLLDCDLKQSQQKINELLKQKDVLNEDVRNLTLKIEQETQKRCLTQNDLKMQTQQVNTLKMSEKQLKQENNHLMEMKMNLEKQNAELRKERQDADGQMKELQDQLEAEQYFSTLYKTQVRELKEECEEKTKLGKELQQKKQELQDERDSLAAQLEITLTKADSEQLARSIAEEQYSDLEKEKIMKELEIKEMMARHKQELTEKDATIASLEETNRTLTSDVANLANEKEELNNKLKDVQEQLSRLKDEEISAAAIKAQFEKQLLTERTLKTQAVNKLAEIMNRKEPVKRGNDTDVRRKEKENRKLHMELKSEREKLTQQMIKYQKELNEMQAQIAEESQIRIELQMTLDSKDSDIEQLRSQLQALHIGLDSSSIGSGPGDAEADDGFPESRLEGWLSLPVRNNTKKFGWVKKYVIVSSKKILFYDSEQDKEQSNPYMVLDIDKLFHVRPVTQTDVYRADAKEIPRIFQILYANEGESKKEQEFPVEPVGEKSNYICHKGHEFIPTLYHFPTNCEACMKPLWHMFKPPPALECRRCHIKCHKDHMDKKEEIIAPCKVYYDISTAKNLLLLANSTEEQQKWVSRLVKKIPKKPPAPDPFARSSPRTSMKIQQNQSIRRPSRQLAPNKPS

`NC(CC(=O)NC1CCc2ccccc21)c1ccc(C(=O)Nc2ccncc2)cc1` (stereo not given) returned a half-maximal inhibitory concentration (IC50) of 50 to 500 nM.

On to `CN(CC(N)c1ccc(C(=O)Nc2ccncc2)cc1)C(=O)Cc1ccccc1` (stereo not given), for which the IC50 lay in the range of 500 to 5000 nM.

On to `NC(CNC(=O)c1ccccc1Nc1ccccc1)c1ccc(C(=O)Nc2ccncc2)cc1` (stereo not given), for which the IC50 lay within 500 to 5000 nM.

Compound `CN(CC(N)c1ccc(C(=O)Nc2ccncc2)cc1)C(=O)C1(c2ccc(F)cc2)CCCC1` (stereo not given) showed an IC50 of 500 to 5000 nM.

On to `NC(CNC(=O)c1ccccc1Oc1ccccc1)c1ccc(C(=O)Nc2ccncc2)cc1` (stereo not given), for which the IC50 lay in the range of 500 to 5000 nM.
